target: T1, PIP4K2C (Homo sapiens, UniProt Q8TBX8); assay: HiBiT PIP4K2C degradation assay in MOLT-4 cells (endogenous PIP4K2C C-terminally tagged with HiBiT); assay type: cell-based; set-up: untagged in primary human PBMCs and monocyte-derived dendritic cells; conditions: 6 hours of incubation time, rather than 24 hours; MOLT-4, top concentration 10 micromolar; read-out: HiBIT-degradation MOLT4 PIP4k2C DC50 (6 hours, marked *)
T1 sequence (Q8TBX8 1-421): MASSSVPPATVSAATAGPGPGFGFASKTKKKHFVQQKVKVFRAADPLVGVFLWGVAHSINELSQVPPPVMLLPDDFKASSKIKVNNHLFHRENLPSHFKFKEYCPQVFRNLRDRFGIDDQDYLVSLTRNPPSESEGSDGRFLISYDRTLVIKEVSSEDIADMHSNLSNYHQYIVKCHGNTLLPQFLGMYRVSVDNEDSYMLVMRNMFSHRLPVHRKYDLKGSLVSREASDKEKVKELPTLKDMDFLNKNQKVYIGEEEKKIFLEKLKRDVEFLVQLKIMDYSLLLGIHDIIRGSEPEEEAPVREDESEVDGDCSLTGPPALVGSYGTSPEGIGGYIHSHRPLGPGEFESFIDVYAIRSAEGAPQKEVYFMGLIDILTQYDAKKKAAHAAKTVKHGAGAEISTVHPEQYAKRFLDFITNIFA
Source text: Example B-2: HiBiT PIP4K2C degradation assay
Materials: MOLT-4, a human T lymphoblast cell line (see https://www.atcc.org/products/crl-1582, herein incorporated by reference in its entirety), was genetically engineered using CRISPR-Cas9 by Synthego Corporation (Redwood City, CA) to C-terminally tag endogenous PIP4K2C with HiBiT peptide. Following clonal selection, genotype was confirmed by Sanger sequencing. MO LT-4 were maintained using RPMI-1640 medium from Gibco (Grand Island, NY, catalog number 11875-085) supplemented with 10% fetal bovine serum (FBS) from VWR (Philadelphia, PA, catalog number 97068-085). For HiBiT assays the cells were resuspended in RPMI-1640 medium without phenol read from Gibco (Grand Island, NY, catalog number 11835-030) supplemented with 10% FBS. Nano-Glo® HiBiT Lytic Assay System was purchased from Promega (Madison, WI, Catalog number N3030). Cell culture flasks and 384-well microplates were purchased from Corning (Glendale, AZ).
To study PIP4K2C degradation, 384-well plates were plated with a 10-point dose response curve, 3-fold dilution, in duplicate with a top starting concentration of 10 micromolar. Subsequently 22,500 cells were added to each well and incubated at 37 C in 5% C02 for 24 hours or 6 hours. At the end of the incubation time, cells were treated with the Nano-Glo® HiBiT Lytic Detection System following the manufacturer's instructions. Luminescence was measured with a PHERAstar FSX plate reader (BMG Labtech, Cary, NC). The Levenberg-Marquardt algorithm was used to fit a Hill equation to dose-response data to calculate DC50 values (see Table 6).

Row | DC50 | Structure (SMILES)
1 | < 500 nM | O=C1CCC(Nc2ccc(N3CCC(CN4CCC(C(=O)N[C@H]5CC[C@H](Nc6ncc(F)c(-c7cccc(-n8ccccc8=O)c7)n6)CC5)CC4)CC3)c(F)c2)C(=O)N1 (mixture of isomers) [Compound 433, 1-((1-(4-((2,6-dioxopiperidin-3-yl)amino)-2-fluorophenyl)piperidin-4-yl)methyl)-N-((1r,4r)-4-((5-fluoro-4-(3-(2-oxopyridin-1(2H)-yl)phenyl)pyrimidin-2-yl)amino)cyclohexyl)piperidine-4-carboxamide]
2 | < 500 nM | Cn1nc(C2CCC(=O)NC2=O)c2ccc(C3CCN(CCN4CCC(C(=O)N[C@H]5CC[C@H](Nc6ncc(F)c(-c7cccc(-n8ccccc8=O)c7)n6)CC5)CC4)CC3)cc21 (mixture of isomers) [Compound 534, 1-(2-(4-(3-(2,6-dioxopiperidin-3-yl)-1-methyl-1H-indazol-6-yl)piperidin-1-yl)ethyl)-N-((1r,4r)-4-((5-fluoro-4-(3-(2-oxopyridin-1(2H)-yl)phenyl)pyrimidin-2-yl)amino)cyclohexyl)piperidine-4-carboxamide]

same assay, conditions: 24 hours incubation, MOLT-4, top concentration 10 micromolar; read-out: HiBIT-degradation MOLT4 PIP4k2C 24 hours DC50

Row | DC50 | Structure (SMILES)
3 | < 500 nM | Cn1c(=O)n(C2CCC(=O)NC2=O)c2ccc(C3CCN(CCN4CCN(C(=O)[C@H]5CCC[C@@H](Nc6ncc(Cl)c(-c7cccc(-c8ccccc8)c7)n6)C5)CC4)CC3)cc21 (relative stereo) [Compound 49, cis-3-(5-(1-(2-(4-(3-((4-([1,1′-biphenyl]-3-yl)-5-chloropyrimidin-2-yl)amino)cyclohexane-1-carbonyl)piperazin-1-yl)ethyl)piperidin-4-yl)-3-methyl-2-oxo-2,3-dihydro-1H-benzo[d]imidazol-1-yl)piperidine-2,6-dione]
4 | < 500 nM | Cn1c(=O)n(C2CCC(=O)NC2=O)c2ccc(C3CCN(CC(=O)N4CCN(C(=O)[C@H]5CCC[C@@H](Nc6ncc(Cl)c(-c7cccc(-c8ccccc8)c7)n6)C5)CC4)CC3)cc21 (relative stereo) [Compound 51, cis-3-(5-(1-(2-(4-(3-((4-([1,1′-biphenyl]-3-yl)-5-chloropyrimidin-2-yl)amino)cyclohexane-1-carbonyl)piperazin-1-yl)-2-oxoethyl)piperidin-4-yl)-3-methyl-2-oxo-2,3-dihydro-1H-benzo[d]imidazol-1-yl)piperidine-2,6-dione]
5 | < 500 nM | Cn1c(=O)n(C2CCC(=O)NC2=O)c2ccc(C3CCN(CCC4CCN(C(=O)[C@H]5CCC[C@@H](Nc6ncc(Cl)c(-c7cccc(-c8ccccc8)c7)n6)C5)CC4)CC3)cc21 (relative stereo) [Compound 52, cis-3-(5-(1-(2-(1-(3-((4-([1,1′-biphenyl]-3-yl)-5-chloropyrimidin-2-yl)amino)cyclohexane-1-carbonyl)piperidin-4-yl)ethyl)piperidin-4-yl)-3-methyl-2-oxo-2,3-dihydro-1H-benzo[d]imidazol-1-yl)piperidine-2,6-dione]
6 | < 500 nM | O=C1CCC(N2Cc3cc(C4CCN(CC(=O)N5CCN(C(=O)[C@H]6CCC[C@@H](Nc7ncc(Cl)c(-c8cccc(-c9ccccc9)c8)n7)C6)CC5)CC4)ccc3C2=O)C(=O)N1 (relative stereo) [Compound 54, cis-3-(5-(1-(2-(4-(3-((4-([1,1′-biphenyl]-3-yl)-5-chloropyrimidin-2-yl)amino)cyclohexane-1-carbonyl)piperazin-1-yl)-2-oxoethyl)piperidin-4-yl)-1-oxoisoindolin-2-yl)piperidine-2,6-dione]
7 | 500 to 1000 nM | O=C1CCC(Nc2ccc(C3CCN(CCN4CCN(C(=O)[C@H]5CCC[C@@H](Nc6ncc(Cl)c(-c7cccc(-c8ccccc8)c7)n6)C5)CC4)CC3)cc2)C(=O)N1 (relative stereo) [Compound 55, cis-3-((4-(1-(2-(4-(3-((4-([1,1′-biphenyl]-3-yl)-5-chloropyrimidin-2-yl)amino)cyclohexane-1-carbonyl)piperazin-1-yl)ethyl)piperidin-4-yl)phenyl)amino)piperidine-2,6-dione]
